# In PubChem BioAssay AID2060505 (Molecular Pharmacology Branch, DTP, NCI, 2025):
# System: 633275-114-R-J1-PDC complex spheroids, viability
# Assay: Anticancer human tumor 633275-114-R-J1-PDC patient-derived endometrial adenocarcinoma cell line growth inhibition [GQUAD]
# Details: for IC50: curve of first compound; for viability, T/C: stronger effect = lower value
# Summary of the method: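 Viability of tumor cells grown as complex spheroids with endothelial and stromal cells, exposed to drug combinations. Top concentration at or near clinical Cmax (else 10 microM), diluted in half-log increments.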
# [1] = second compound 0.0316 µM, first compound 0.0316 µM
# [2] = second compound 0.0316 µM, first compound 0.1 µM
# [3] = second compound 0.0316 µM, first compound 0.316 µM
# [4] = second compound 0.0316 µM, first compound 1 µM
# [5] = second compound 0.0316 µM, first compound 3.16 µM
# [6] = second compound 0.0316 µM, first compound 10 µM
# [7] = second compound 0.1 µM, first compound 0.0316 µM
# [8] = second compound 0.1 µM, first compound 0.1 µM
# [9] = second compound 0.1 µM, first compound 0.316 µM
# [10] = second compound 0.1 µM, first compound 1 µM
# [11] = second compound 0.1 µM, first compound 3.16 µM
# [12] = second compound 0.1 µM, first compound 10 µM
# [13] = second compound 0.316 µM, first compound 0.0316 µM
# [14] = second compound 0.316 µM, first compound 0.1 µM
# [15] = second compound 0.316 µM, first compound 0.316 µM
# [16] = second compound 0.316 µM, first compound 1 µM
# [17] = second compound 0.316 µM, first compound 3.16 µM
# [18] = second compound 0.316 µM, first compound 10 µM
# [19] = second compound 1 µM, first compound 0.0316 µM
# [20] = second compound 1 µM, first compound 0.1 µM
# [21] = second compound 1 µM, first compound 0.316 µM
# [22] = second compound 1 µM, first compound 1 µM
# [23] = second compound 1 µM, first compound 3.16 µM
# [24] = second compound 1 µM, first compound 10 µM
# [25] = second compound 3.16 µM, first compound 0.0316 µM
# [26] = second compound 3.16 µM, first compound 0.1 µM
# [27] = second compound 3.16 µM, first compound 0.316 µM
# [28] = second compound 3.16 µM, first compound 1 µM
# [29] = second compound 3.16 µM, first compound 3.16 µM
# [30] = second compound 3.16 µM, first compound 10 µM
# [31] = second compound 10 µM, first compound 0.0316 µM
# [32] = second compound 10 µM, first compound 0.1 µM
# [33] = second compound 10 µM, first compound 0.316 µM
# [34] = second compound 10 µM, first compound 1 µM
# [35] = second compound 10 µM, first compound 3.16 µM
# [36] = second compound 10 µM, first compound 10 µM
# 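Note: spheroids exposed to the agents for seven days.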
# 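Throughout, for viability, T/C: percent of DMSO vehicle control viability which is 100%.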
smiles,measurement,setting,value
C=CCn1c(=O)c2cnc(Nc3ccc(N4CCN(C)CC4)cc3)nc2n1-c1cccc(C(C)(C)O)n1 + Cc1[nH]c2ccc(F)cc2c1-c1nc2c3cccnc3c3ncccc3c2[nH]1,IC50,second compound 0.0316 µM,645 nM
same,IC50,second compound 0.1 µM,720 nM
same,IC50,second compound 0.316 µM,623 nM
same,IC50,second compound 1 µM,577 nM
same,IC50,second compound 3.16 µM,361 nM
same,IC50,second compound 10 µM,165 nM
same,"viability, T/C",[1],105%
same,"viability, T/C",[2],100%
same,"viability, T/C",[3],73.3%
same,"viability, T/C",[4],35.1%
same,"viability, T/C",[5],22.2%
same,"viability, T/C",[6],16.2%
same,"viability, T/C",[7],103%
same,"viability, T/C",[8],97.9%
same,"viability, T/C",[9],73.9%
same,"viability, T/C",[10],40.4%
same,"viability, T/C",[11],22.6%
same,"viability, T/C",[12],17.4%
same,"viability, T/C",[13],101%
same,"viability, T/C",[14],93.9%
same,"viability, T/C",[15],67.9%
same,"viability, T/C",[16],37.2%
same,"viability, T/C",[17],21.8%
same,"viability, T/C",[18],16%
same,"viability, T/C",[19],87.1%
same,"viability, T/C",[20],97.8%
same,"viability, T/C",[21],67.3%
same,"viability, T/C",[22],33.3%
same,"viability, T/C",[23],19.3%
same,"viability, T/C",[24],15.6%
same,"viability, T/C",[25],69.3%
same,"viability, T/C",[26],69.4%
same,"viability, T/C",[27],51.5%
same,"viability, T/C",[28],29.8%
same,"viability, T/C",[29],18.6%
same,"viability, T/C",[30],14.8%
same,"viability, T/C",[31],58.2%
same,"viability, T/C",[32],55%
same,"viability, T/C",[33],43.4%
same,"viability, T/C",[34],26.2%
same,"viability, T/C",[35],17.9%
same,"viability, T/C",[36],16.6%
CC1COCCN1c1cc(C2(O)CC3CCC(C2)O3)c2cnn(-c3ccn[nH]3)c2n1 (centres undefined) + CN(C)c1ccc(Nc2c3ccc(NC(=O)CCN4CCCC4)cc3nc3cc(NC(=O)CCN4CCCC4)ccc23)cc1,IC50,second compound 0.0316 µM,93.5 nM
same,IC50,second compound 0.1 µM,92.7 nM
same,IC50,second compound 0.316 µM,105 nM
same,IC50,second compound 1 µM,65.3 nM
same,IC50,second compound 3.16 µM,53.2 nM
same,IC50,second compound 10 µM,< 31.6 nM
same,"viability, T/C",[1],73.6%
same,"viability, T/C",[2],48.9%
same,"viability, T/C",[3],28.7%
same,"viability, T/C",[4],18.4%
same,"viability, T/C",[5],13.6%
same,"viability, T/C",[6],9.33%
same,"viability, T/C",[7],79.9%
same,"viability, T/C",[8],46.5%
same,"viability, T/C",[9],30.2%
same,"viability, T/C",[10],19.8%
same,"viability, T/C",[11],15.4%
same,"viability, T/C",[12],9.07%
same,"viability, T/C",[13],70.7%
same,"viability, T/C",[14],50.7%
same,"viability, T/C",[15],33.1%
same,"viability, T/C",[16],19.2%
same,"viability, T/C",[17],15.8%
same,"viability, T/C",[18],10.4%
same,"viability, T/C",[19],62.7%
same,"viability, T/C",[20],41.7%
same,"viability, T/C",[21],30.4%
same,"viability, T/C",[22],19.8%
same,"viability, T/C",[23],14.4%
same,"viability, T/C",[24],9.06%
same,"viability, T/C",[25],58.8%
same,"viability, T/C",[26],39%
same,"viability, T/C",[27],26.7%
same,"viability, T/C",[28],15.3%
same,"viability, T/C",[29],12%
same,"viability, T/C",[30],8.3%
same,"viability, T/C",[31],29.2%
same,"viability, T/C",[32],23.9%
same,"viability, T/C",[33],17%
same,"viability, T/C",[34],10.9%
same,"viability, T/C",[35],8.55%
same,"viability, T/C",[36],4.92%
